These results are taken from patent US20060116410A1, “4-Aminomethyl benzamidine derivatives” (priority 2004, published 2006).

pKi: −log10 of the molar value. Where a name gives a salt, the structure may show the parent alone.

The target of the test is T1, factor VIIa/tissue factor complex (Homo sapiens, UniProt P08709).
T1 construct: 9 nM of soluble factor VIIa
Description: Inhibition of amidolytic activity of factor VIIa/tissue factor complex, chromogenic substrate Chromozym-tPA. The class given is biochemical. The note with it: 26 nM tissue factor, 9 nM soluble factor VIIa, room temperature, pH 7.5. How it is done:
Measurements were carried out by an automated robotic assay on microtitre plates at room temperature. To this end, 100 μl of a solution of 26 nM of tissue factor, 9 nM of soluble factor VIIa and 8 mM of calcium chloride were added to 25 μl of a solution of the inhibitor in a buffer [pH 7.5, 100 mM, comprising 0.14M NaCl, 0.1M N-(2-hydroxyethyl)piperazine-N′-(2-ethanesulphonic acid) (HEPES), 0.5 mg/l of fatty-acid-free BSA (bovine serum albumin) and 0.05% NaN3] in each well of the plate. After an incubation time of 15 minutes the reaction was started by the addition of 50 μl of chromogenic substrate Chromozym-tPA (3.5 mM, MeSO2-D-Phe-Gly-Arg-paranitroamlide) and the hydrolysis of the substrate was followed spectrophotometrically on a kinetic microtitre plate reader over 10 minutes. Using the plot of the inhibition curves, the Ki values were determined according to the method described in Biochem. J. 55, 1953, 170-171.

T1 sequence (P08709 213-466 limits assumed): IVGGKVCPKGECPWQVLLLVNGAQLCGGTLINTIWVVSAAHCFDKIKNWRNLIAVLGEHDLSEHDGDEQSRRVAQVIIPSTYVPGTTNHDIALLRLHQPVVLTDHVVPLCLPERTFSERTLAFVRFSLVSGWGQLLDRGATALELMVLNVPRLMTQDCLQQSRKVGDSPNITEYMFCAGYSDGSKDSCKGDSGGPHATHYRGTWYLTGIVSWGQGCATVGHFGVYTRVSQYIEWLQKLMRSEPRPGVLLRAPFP
T1 sequence (P08709 61-212 limits assumed): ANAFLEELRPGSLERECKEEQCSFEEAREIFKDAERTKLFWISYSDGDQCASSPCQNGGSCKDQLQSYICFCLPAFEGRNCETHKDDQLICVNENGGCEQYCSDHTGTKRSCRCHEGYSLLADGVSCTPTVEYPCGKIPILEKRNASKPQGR
T1 sequence (P13726 33-295 partner): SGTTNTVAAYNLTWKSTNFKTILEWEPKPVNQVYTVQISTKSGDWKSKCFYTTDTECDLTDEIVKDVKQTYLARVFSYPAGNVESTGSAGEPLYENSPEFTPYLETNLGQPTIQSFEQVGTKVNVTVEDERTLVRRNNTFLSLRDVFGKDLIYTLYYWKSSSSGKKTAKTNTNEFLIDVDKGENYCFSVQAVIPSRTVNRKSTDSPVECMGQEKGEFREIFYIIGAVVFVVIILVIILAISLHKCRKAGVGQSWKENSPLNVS

By pKi is commonly meant −log10 of the Ki, conventionally taken in molar units. Low values mean a high Ki, high ones a low Ki. The compound `CCOC(=O)CNc1cc(C(=N)N)ccc1CNC(=O)c1cccc(C)c1` [Example 24.1, {5-carbamimidoyl-2-[(3-methyl-benzoylamino)-methyl]-phenylamino}-acetic acid ethyl ester hydrochloride] showed a pKi of 7.09.

Take `CNC(=O)COc1cc(C(=N)N)ccc1CNC(=O)c1cc(Cl)cc(Cl)c1` [Example 18.2, N-(4-carbamimidoyl-2-methylcarbamoylmethoxy-benzyl)-3,5-dichloro-benzamide hydrochloride]: the pKi is 7.21.

On to `Cc1cc(C(=O)NCc2ccc(C(=N)N)cc2OCCNC(=O)c2ccccc2F)ccc1F` [Example 42.2, N-{4-carbamimidoyl-2-[2-(2-fluoro-benzoylamino)-ethoxy]-benzyl}-4-fluoro-3-methyl-benzamide hydrochloride], for which the pKi is 7.29.
